The target of this assay is T1, DDR1 phosphorylation in T-47D (ATCC, HTB-133) cells (Homo sapiens, UniProt Q08345).
T1 construct: host or cells: T-47D
Briefly: Measurement of DDR1 phosphorylation suppression rate by using T-47D cells (p-DDR1 ELISA). The format is cell-based. Conditions: collagen Type I 10 μg/ml, p-DDR1 (panTyr) ELISA. The gist of the method: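 T-47D cells were pre-treated with compound 24 h in RPMI/0.1% BSA (0.1% DMSO, 6-point 10-fold series), then stimulated with rat tail collagen I (10 μg/ml) for 24 h at 37 °C. Lysate p-DDR1 (panTyr) was read by ELISA; IC50 derived from % inhibition versus collagen and no-collagen controls.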
Background: An ELISA detects its analyte on a solid surface through an enzyme-linked reagent.

Results on 1 molecule are retold here after patent publication US20220306640A1, “HYDANTOIN DERIVATIVE” (ONO PHARMACEUTICAL CO., LTD., priority 2019, published 2022).

The IC50 is the midpoint of a concentration-inhibition curve. A high value points to a need for much substance.

T1 sequence (Q08345 19-913): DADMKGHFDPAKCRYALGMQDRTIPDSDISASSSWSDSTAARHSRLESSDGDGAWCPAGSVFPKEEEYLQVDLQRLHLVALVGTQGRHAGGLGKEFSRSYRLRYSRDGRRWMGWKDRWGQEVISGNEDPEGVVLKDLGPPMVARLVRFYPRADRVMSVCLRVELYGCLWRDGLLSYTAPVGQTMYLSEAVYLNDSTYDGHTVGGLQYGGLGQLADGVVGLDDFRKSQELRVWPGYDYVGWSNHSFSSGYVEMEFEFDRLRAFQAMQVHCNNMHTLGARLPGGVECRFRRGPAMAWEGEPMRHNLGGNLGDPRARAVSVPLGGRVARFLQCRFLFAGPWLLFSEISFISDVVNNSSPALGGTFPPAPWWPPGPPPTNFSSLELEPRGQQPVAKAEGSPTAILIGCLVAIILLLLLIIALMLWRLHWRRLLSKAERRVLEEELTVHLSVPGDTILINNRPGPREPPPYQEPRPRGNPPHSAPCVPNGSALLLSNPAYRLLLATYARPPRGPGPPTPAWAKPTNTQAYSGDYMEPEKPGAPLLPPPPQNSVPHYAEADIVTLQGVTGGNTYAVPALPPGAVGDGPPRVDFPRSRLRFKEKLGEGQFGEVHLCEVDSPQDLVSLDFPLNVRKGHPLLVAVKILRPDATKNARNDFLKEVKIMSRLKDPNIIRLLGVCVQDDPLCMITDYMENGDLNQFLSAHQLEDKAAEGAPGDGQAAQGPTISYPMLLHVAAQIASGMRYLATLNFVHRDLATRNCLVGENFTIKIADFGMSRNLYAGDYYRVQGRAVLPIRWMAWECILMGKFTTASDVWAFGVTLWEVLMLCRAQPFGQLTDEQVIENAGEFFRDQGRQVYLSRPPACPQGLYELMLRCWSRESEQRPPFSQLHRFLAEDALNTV

`Cc1cc(Oc2ccnc(N)n2)ccc1N1C(=O)CN(c2ccc(F)c(OC(F)(F)F)c2)C1=O` [Example 3(110), 3-{4-[(2-amino-4-pyrimidinyl)oxy]-2-methylphenyl}-1-[4-fluoro-3-(trifluoromethoxy)phenyl]-2,4-imidazolidinedione] registered an IC50 of 1 nM.
